Laboratory results: US20110009350A1, “Oil-in-Water Formulation of Avermectins” (priority 2005, published 2011)

Columns and labels:
[1] = Stability of Abamectin in water at various pH-values and temperatures, kept in the dark, HPLC; format: physicochemical
Protocol: The stability of Abamectin in water at various pH-values and temperatures was determined. 194.4 mg of Abamectin was dissolved in 10 ml methanol and 1 ml of the solution transferred to 100 ml of de-mineralised water and a part of this was transferred to a buffer solution. The sample was kept in the dark and the solution analysed using a HPLC.

[2] = Stability of Abamectin in water exposed to light (5000-6000 lux) at 25° C., HPLC; format: physicochemical
Protocol: The stability of Abamectin in water exposed to light at various pH-values was determined. 194.4 mg of Abamectin was dissolved in 10 ml methanol and 1 ml of the solution transferred to 100 ml of demineralised water and a part of this transferred to a buffer solution. The solution was exposed to light (5000-6000 lux) at 25° C. and analysed using a HPLC.

## Abamectin
[1]; 25° C., 7 days, pH 4.0, dark
  Abamectin concentration (ppm): 3.130 ppm
[1]; 25° C., 7 days, pH 7.0, dark
  Abamectin concentration (ppm): 3.188 ppm
[1]; 25° C., 7 days, pH 9.0, dark
  Abamectin concentration (ppm): 3.005 ppm
[1]; 25° C., 14 days, pH 4.0, dark
  Abamectin concentration (ppm): 2.782 ppm
[1]; 25° C., 14 days, pH 7.0, dark
  Abamectin concentration (ppm): 3.040 ppm
[1]; 25° C., 14 days, pH 9.0, dark
  Abamectin concentration (ppm): 2.596 ppm
[1]; 25° C., 21 days, pH 4.0, dark
  Abamectin concentration (ppm): 2.566 ppm
[1]; 25° C., 21 days, pH 7.0, dark
  Abamectin concentration (ppm): 2.829 ppm
[1]; 25° C., 21 days, pH 9.0, dark
  Abamectin concentration (ppm): 2.380 ppm
[1]; 25° C., 28 days, pH 4.0, dark
  Abamectin concentration (ppm): 2.524 ppm
[1]; 25° C., 28 days, pH 7.0, dark
  Abamectin concentration (ppm): 2.676 ppm
[1]; 25° C., 28 days, pH 9.0, dark
  Abamectin concentration (ppm): 2.287 ppm
[1]; 25° C., Initial, pH 4.0, dark
  Abamectin concentration (ppm): 3.495 ppm
[1]; 25° C., Initial, pH 7.0, dark
  Abamectin concentration (ppm): 3.327 ppm
[1]; 25° C., Initial, pH 9.0, dark
  Abamectin concentration (ppm): 3.555 ppm
[1]; 50° C., 7 days, pH 4.0, dark
  Abamectin concentration (ppm): 1.054 ppm
[1]; 50° C., 7 days, pH 7.0, dark
  Abamectin concentration (ppm): 2.952 ppm
[1]; 50° C., 7 days, pH 9.0, dark
  Abamectin concentration (ppm): 1.265 ppm
[1]; 50° C., 14 days, pH 4.0, dark
  Abamectin concentration (ppm): 0.383 ppm
[1]; 50° C., 14 days, pH 7.0, dark
  Abamectin concentration (ppm): 2.780 ppm
[1]; 50° C., 14 days, pH 9.0, dark
  Abamectin concentration (ppm): 0.519 ppm
[1]; 50° C., 21 days, pH 4.0, dark
  Abamectin concentration (ppm): 0.123 ppm
[1]; 50° C., 21 days, pH 7.0, dark
  Abamectin concentration (ppm): 2.194 ppm
[1]; 50° C., 21 days, pH 9.0, dark
  Abamectin concentration (ppm): 0.205 ppm
[1]; 50° C., 28 days, pH 4.0, dark
  Abamectin concentration (ppm): 0.0609 ppm
[1]; 50° C., 28 days, pH 7.0, dark
  Abamectin concentration (ppm): 1.949 ppm
[1]; 50° C., 28 days, pH 9.0, dark
  Abamectin concentration (ppm): 0.0628 ppm
[1]; 50° C., Initial, pH 4.0, dark
  Abamectin concentration (ppm): 3.495 ppm
[1]; 50° C., Initial, pH 7.0, dark
  Abamectin concentration (ppm): 3.327 ppm
[1]; 50° C., Initial, pH 9.0, dark
  Abamectin concentration (ppm): 3.555 ppm
[2]; 7 days, pH 4.0
  Abamectin concentration (ppm): 2.923 ppm
[2]; 7 days, pH 7.0
  Abamectin concentration (ppm): 2.941 ppm
[2]; 7 days, pH 9.0
  Abamectin concentration (ppm): 3.163 ppm
[2]; 14 days, pH 4.0
  Abamectin concentration (ppm): 2.332 ppm
[2]; 14 days, pH 7.0
  Abamectin concentration (ppm): 2.529 ppm
[2]; 14 days, pH 9.0
  Abamectin concentration (ppm): 2.810 ppm
[2]; 21 days, pH 4.0
  Abamectin concentration (ppm): 1.961 ppm
[2]; 21 days, pH 7.0
  Abamectin concentration (ppm): 2.223 ppm
[2]; 21 days, pH 9.0
  Abamectin concentration (ppm): 2.360 ppm
[2]; 28 days, pH 4.0
  Abamectin concentration (ppm): 1.666 ppm
[2]; 28 days, pH 7.0
  Abamectin concentration (ppm): 2.034 ppm
[2]; 28 days, pH 9.0
  Abamectin concentration (ppm): 2.173 ppm
[2]; Initial, pH 4.0
  Abamectin concentration (ppm): 3.495 ppm
[2]; Initial, pH 7.0
  Abamectin concentration (ppm): 3.327 ppm
[2]; Initial, pH 9.0
  Abamectin concentration (ppm): 3.555 ppm
